Experimental data: patent US20140343089A1, “NOREPINEPHRINE AND SELECTIVE SEROTONIN RECEPTOR BLOCKER AND USE THEREOF” (priority 2011, published 2014)

How the values were obtained:
ICR mice [1] = test: immobility time of tail suspension in mice; type: in vivo; settings: i.p.; for immobility time of tail suspension in mice: 60 minutes after dosing
Protocol: (§1) Animals used for experiments were adult male ICR mice weighing 18˜25 g, housed in 8 pcs/cages, regulated with a 12/12 hour light/dark cycle, maintained at a constant temperature of 23±1° C. and a humidity of 50˜60% and allowed ad libitum access to rodent chow and water. After animals were purchased from the experimental animal center and performed an adaptive housing, the experiment was allowed to start.
(§2) After animal adaptive housing, all the animals were randomly divided into three groups:
(§3) Group one: negative control group, intraperitoneally injected with 1% DMSO in physiological saline (10.0 ml/kg, i.p.);
Group two: experimental drug group, the mice were intraperitoneally injected respectively with different doses of the test compound Co. 1: 0.1, 0.5, 1, 5 and 10 mg/kg, i.p., the drug was formulated in 1% DMSO in physiological saline;
(§4) Group three: positive drug control group, the mice were intraperitoneally injected with Desipramine (20 mg/kg, i.p., the drug was formulated in 1% DMSO in physiological saline).
The experiment employed Shanghai Jiliang animal behavior video analysis system, wherein the experimental environment was kept absolutely silent, when grabbing animals and administrating, movements were gentle to minimize adverse reactions of mental condition and emotion brought by external stimulus. 60 minutes after dosing, the site 20 mm from the tail end was fixed and the mice were hung upside-down in an activity box for 6 minutes. The immobility time in later 4 minutes was analyzed.

ICR mice [2] = test: spontaneous activity in mice; type: in vivo; settings: each test dose (0.1, 0.5, 1, 5 and 10 mg/kg, i.p.); 60 minutes after dosing; P>0.05 compared with negative control
Protocol: as §1, §2, §3
Group two: experimental drug group, the mice were intraperitoneally injected respectively with different doses of test compound Co. 1: 0.1, 0.5, 1, 5 and 10 mg/kg, i.p., the drug was formulated in 1% DMSO in physiological saline. […]
The experiment employed Shanghai Jiliang animal behavior video analysis system, wherein the experimental environment was kept absolutely silent, when grabbing animals and administrating, movements were gentle to minimize adverse reactions of mental condition and emotion brought by external stimulus. […] The spontaneous activity box was connected to a recording apparatus and the activity conditions of mice within 30-60 minutes were recorded. The effects of drug or control substances on spontaneous activity in mice were determined.

hPPB = type: in vitro ADME; settings: human plasma protein binding; read-out: hPPB % bound (converted)
In vivo rat PK = settings: for Cmax / half-life / bioavailability: po; for half-life: read-out: In vivo rat PK T½ (p.o.) (converted); for clearance: iv, read-out: In vivo rat PK CL (i.v.); for bioavailability: read-out: In vivo rat PK F %
Description: The experiment was repeated for three times and the mean value was taken.

rPPB = type: in vitro ADME; settings: rat plasma protein binding; read-out: rPPB % bound (converted)
ICR mice [3] = test: immobility time of forced swimming in mice; type: in vivo; settings: i.p.
Protocol: as §1, §2, §3
Group two: experimental drug group, the mice were intraperitoneally injected respectively with different doses of test compound Co. 3: 0.1, 0.5, 1, 5 and 10 mg/kg, i.p., the drug was formulated in 1% DMSO in physiological saline;
as §4
The mice were placed in a large beaker with a height of about 40 cm and an internal diameter of about 19 cm, loaded with water with a temperature of 24˜25° C. inside. The water level reached 22 cm height (Porsolt et al., 1977). […] 30 minutes, or 60 minutes later, the mice were placed into a beaker loaded with water, and immobility time of animals within 5 minutes was measured. […]

[4] = from Zhao, Chinese Journal of Psychiatry, Vol. 35, No. 4; cited from earlier work
rMics binding = type: in vitro ADME; settings: rat microsomes; read-out: rMics binding % bound (converted)
hMics binding = type: in vitro ADME; settings: human microsomes; read-out: hMics binding % bound (converted)

Row | SMILES | fraction unbound (hPPB) | Cmax (In vivo rat PK) | half-life (In vivo rat PK) | fraction unbound (rPPB) | clearance (In vivo rat PK) | bioavailability (In vivo rat PK) | other results
1 | CN1C[C@@H]2c3ncccc3Oc3cc(Cl)ccc3[C@@H]2C1 [Co. 1] | 0.13 | 51 ng/mL | 276 min | 0.2 | – | – | immobility time of tail suspension in mice (ICR mice [1]; 0.1 and 0.5 mg/kg): no effect; immobility time of tail suspension in mice (ICR mice [1]; 1.0, 5.0 and 10 mg/kg, P<0.05-0.01 compared to the negative control group): significantly inhibited; inhibitory effect on the immobility time of tail suspension compared to positive drug Desipramine (ICR mice [1]; Desipramine 20 mg/kg): similar; spontaneous activity in mice (ICR mice [2]): no significant effect
2 | CN1C[C@@H]2c3ncccc3Oc3ccccc3[C@@H]2C1 [Co. 2] | 0.45 | 17 ng/mL | 534 min | 0.63 | 139 mL/min/kg | 12% | –
3 | CCN1C[C@@H]2c3ncc(C)cc3Oc3cc(F)c(C)cc3[C@@H]2C1 [Co. 3] | – | – | – | – | – | – | immobility time of forced swimming in mice (ICR mice [3]; 0.5, 1.0, 5.0 and 10 mg/kg, P<0.05-0.01 compared to the negative control group): significantly extended; effect on immobility time of forced swimming compared to positive drug Desipramine (ICR mice [3]; Desipramine 20 mg/kg, P<0.05): stronger
4 | c1ccc2c(c1)Cc1cccnc1N1CCNCC21 (stereo not drawn) [Demethylated mirtazapine] | – | – | – | – | – | – | share of the drug activity of mirtazapine [4]: 3%-10%
5 | CN1CCN2c3ncccc3Cc3ccccc3C2C1 (stereo not drawn) [Mirtazapine, reference compound] | 0.2 | 30 ng/mL | – | 0.11 | 101 mL/min/kg | 14% | fraction unbound (rMics binding): 0.79; fraction unbound (hMics binding): 0.69
